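Values below derive from 48-hour exposures of cells grown in 96-well plates, with endpoints linearly interpolated between the two concentrations bracketing the appropriate inhibition level. TGI: total growth inhibition.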
Columns and labels:
Assay in all cases: growth of human tumour cells (NCI), 48 h
MOLT-4 leukemia = tested on: MOLT-4 leukemia
T-47D breast = tested on: T-47D breast
HT29 colon = tested on: HT29 colon
K-562 leukemia = tested on: K-562 leukemia
SF-295 CNS = tested on: SF-295 CNS
MCF7 breast = tested on: MCF7 breast
SR leukemia = tested on: SR leukemia
UO-31 renal = tested on: UO-31 renal
SK-MEL-2 melanoma = tested on: SK-MEL-2 melanoma
OVCAR-3 ovarian = tested on: OVCAR-3 ovarian
SW-620 colon = tested on: SW-620 colon
A549 NSCLC = tested on: A549 NSCLC
NCI-H23 lung = tested on: NCI-H23 lung
PC-3 prostate = tested on: PC-3 prostate
CAKI-1 renal = tested on: CAKI-1 renal
UACC-257 melanoma = tested on: UACC-257 melanoma
SF-539 CNS = tested on: SF-539 CNS
OVCAR-4 ovarian = tested on: OVCAR-4 ovarian
NCI-H226 lung = tested on: NCI-H226 lung
SN12C renal = tested on: SN12C renal
MDA-N = tested on: MDA-N
MDA-MB-231 breast = tested on: MDA-MB-231 breast
ACHN renal = tested on: ACHN renal
DU-145 prostate = tested on: DU-145 prostate
SF-268 CNS = tested on: SF-268 CNS
IGROV1 ovarian = tested on: IGROV1 ovarian
COLO 205 colon = tested on: COLO 205 colon
HCC-2998 colon = tested on: HCC-2998 colon
SK-MEL-5 melanoma = tested on: SK-MEL-5 melanoma
HCT-116 colon = tested on: HCT-116 colon
OVCAR-5 ovarian = tested on: OVCAR-5 ovarian
BT-549 breast = tested on: BT-549 breast
SK-MEL-28 melanoma = tested on: SK-MEL-28 melanoma
HS 578T breast = tested on: HS 578T breast
SNB-19 CNS = tested on: SNB-19 CNS
RXF 393 renal = tested on: RXF 393 renal
HCT-15 colon = tested on: HCT-15 colon
786-0 renal = tested on: 786-0 renal
HL-60(TB) leukemia = tested on: HL-60(TB) leukemia
M14 melanoma = tested on: M14 melanoma
OVCAR-8 ovarian = tested on: OVCAR-8 ovarian
MDA-MB-435 = tested on: MDA-MB-435
CCRF-CEM leukemia = tested on: CCRF-CEM leukemia
MALME-3M melanoma = tested on: MALME-3M melanoma
HOP-92 NSCLC = tested on: HOP-92 NSCLC
NCI-H522 lung = tested on: NCI-H522 lung
KM12 colon = tested on: KM12 colon
NCI-H460 lung = tested on: NCI-H460 lung
U251 CNS = tested on: U251 CNS
HOP-62 NSCLC = tested on: HOP-62 NSCLC
SNB-75 CNS = tested on: SNB-75 CNS
TK-10 renal = tested on: TK-10 renal
UACC-62 melanoma = tested on: UACC-62 melanoma
A498 renal = tested on: A498 renal
LOX IMVI melanoma = tested on: LOX IMVI melanoma
RPMI-8226 leukemia = tested on: RPMI-8226 leukemia
NCI/ADR-RES ovarian = tested on: NCI/ADR-RES ovarian
EKVX NSCLC = tested on: EKVX NSCLC
SK-OV-3 ovarian = tested on: SK-OV-3 ovarian

Measured: TGI

CC(=O)OC1C[C@@H](C)C2(CC(c3ccoc3)OC2=O)C2CCC(O)C3(CO3)C12CO (stereo not given in full)
> 100 µM: MOLT-4 leukemia | T-47D breast | HT29 colon | K-562 leukemia | SF-295 CNS | MCF7 breast | SR leukemia | UO-31 renal | SK-MEL-2 melanoma | OVCAR-3 ovarian | SW-620 colon | A549 NSCLC | NCI-H23 lung | PC-3 prostate | CAKI-1 renal | UACC-257 melanoma | SF-539 CNS | OVCAR-4 ovarian | NCI-H226 lung | SN12C renal | MDA-N | MDA-MB-231 breast | ACHN renal | DU-145 prostate | SF-268 CNS | IGROV1 ovarian | COLO 205 colon | HCC-2998 colon | SK-MEL-5 melanoma | HCT-116 colon | OVCAR-5 ovarian | BT-549 breast | SK-MEL-28 melanoma | HS 578T breast | SNB-19 CNS | RXF 393 renal | HCT-15 colon | 786-0 renal | HL-60(TB) leukemia | M14 melanoma | OVCAR-8 ovarian | MDA-MB-435 | CCRF-CEM leukemia | MALME-3M melanoma | HOP-92 NSCLC | NCI-H522 lung | KM12 colon | NCI-H460 lung | U251 CNS | HOP-62 NSCLC | SNB-75 CNS | TK-10 renal | UACC-62 melanoma | A498 renal | LOX IMVI melanoma | RPMI-8226 leukemia | NCI/ADR-RES ovarian

Cc1nc2c(=O)[nH]ncc2[nH]1
> 100 µM: MOLT-4 leukemia | EKVX NSCLC | T-47D breast | HT29 colon | K-562 leukemia | SF-295 CNS | MCF7 breast | SR leukemia | UO-31 renal | SK-MEL-2 melanoma | OVCAR-3 ovarian | SW-620 colon | A549 NSCLC | NCI-H23 lung | PC-3 prostate | CAKI-1 renal | UACC-257 melanoma | SF-539 CNS | NCI-H226 lung | SN12C renal | MDA-N | MDA-MB-231 breast | ACHN renal | DU-145 prostate | SF-268 CNS | IGROV1 ovarian | COLO 205 colon | SK-MEL-5 melanoma | HCT-116 colon | OVCAR-5 ovarian | BT-549 breast | SK-MEL-28 melanoma | HS 578T breast | SNB-19 CNS | RXF 393 renal | HCT-15 colon | 786-0 renal | HL-60(TB) leukemia | M14 melanoma | OVCAR-8 ovarian | MDA-MB-435 | CCRF-CEM leukemia | KM12 colon | NCI-H460 lung | U251 CNS | HOP-62 NSCLC | SNB-75 CNS | TK-10 renal | UACC-62 melanoma | A498 renal | RPMI-8226 leukemia | NCI/ADR-RES ovarian

O=C1OC2C=CCC1C2 (stereo not given)
> 100 µM: MOLT-4 leukemia | EKVX NSCLC | T-47D breast | HT29 colon | K-562 leukemia | SF-295 CNS | MCF7 breast | SR leukemia | UO-31 renal | SK-MEL-2 melanoma | OVCAR-3 ovarian | SW-620 colon | A549 NSCLC | NCI-H23 lung | PC-3 prostate | CAKI-1 renal | UACC-257 melanoma | SF-539 CNS | NCI-H226 lung | SN12C renal | MDA-N | MDA-MB-231 breast | ACHN renal | DU-145 prostate | SF-268 CNS | IGROV1 ovarian | COLO 205 colon | HCC-2998 colon | SK-MEL-5 melanoma | HCT-116 colon | OVCAR-5 ovarian | BT-549 breast | SK-MEL-28 melanoma | HS 578T breast | SNB-19 CNS | HCT-15 colon | 786-0 renal | HL-60(TB) leukemia | M14 melanoma | OVCAR-8 ovarian | MDA-MB-435 | CCRF-CEM leukemia | MALME-3M melanoma | NCI-H522 lung | KM12 colon | NCI-H460 lung | U251 CNS | HOP-62 NSCLC | SNB-75 CNS | TK-10 renal | UACC-62 melanoma | A498 renal | LOX IMVI melanoma | SK-OV-3 ovarian | RPMI-8226 leukemia | NCI/ADR-RES ovarian

From PubChem BioAssay (NCI)
